Laboratory results published in US6264916A, “N,N-dimethyldiatrizoic acid and its conjugates as hepatobiliary agents for x-ray CT imaging” (Bracco Research, USA, priority 2000, dated 2001).
Read-outs that look alike come from different tables or passages of the source.

How the values were obtained:
[1] = Biodistribution studies in mice (radioiodinated compounds, % ID/g-tissue); assay type: in vivo; conditions: tracer level, but MDTA-Na 0.18M and MDTA-NMG 0.19M; for Biodistribution, Blood 1' / Biodistribution, Kidney 1' / Biodistribution, Liver 1' / Biodistribution, Sm/Lrg. Intestine 1': 1 min; for Biodistribution, Blood 5' / Biodistribution, Kidney 5' / Biodistribution, Liver 5' / Biodistribution, Sm/Lrg. Intestine 5': 5 min; for tissue uptake at 1 h / tissue uptake at 1 min / tissue uptake at 5 min: mouse, iv
Procedure: All of the new analogs were radiolabeled in order to determine their physical and biological properties. The iodinated compounds were exchange-labeled by heating with Na^125 I in the presence of CuSO4 and Na2 S2 O5 in glacial acetic acid at 135-150° C. for 1 h, followed by HPLC purification using a nucleosil C18 column and CH3 CN--H2 O containing 0.1% TFA as an eluent. In some cases (e.g. the compound of Example 12) the radioiodination was carried out by heating with Na*I in HOAc--NaOAc (pH 4.6) at 100° C. for 15 min. In all cases radiolabeled compounds of acceptable radiochemical purity and specific activity were obtained.
The compound of formula I, N,N-dimethyl-diatrizoic acid, was similarly radiolabeled for biological studies.
a) For intravenous administration the preferred vehicle for the compounds of formula I, II and III is bovine serum albumin, however, other physiologically acceptable vehicles may also be used.
Biodistribution studies were conducted in mice and the results are given in Table I. X-Ray CT images of MDTA in mice and rats indicate that these hydrophobic diatrizoate analogs may be of promise for liver imaging.

[2] = Water solubility of MDTA salts; assay type: physicochemical
Procedure: The compound of formula I, N,N-Dimethyldiatrizoic acid (I') (hereinafter sometimes referred to as MDTA) was synthesized, as in reference H. Holtermann et al., U.S. Pat. No. 3,178,673, Apr. 13, 1965, by the N-methylation of diatrizoic acid (IV) using either methyl iodide or dimethyl sulfate in aqueous media at alkaline pH to obtain pure MDTA (>99.9% purity) as a white crystalline solid (m.p. 185° C.).

[3] = blood, blood, 60', read-out: Biodistribution, Blood 60'
[4] = small/large intestine, 60', 60 min

Biodistribution, Blood 1' ([1]; blood) [% ID/g-tissue]	Biodistribution, Blood 5' ([1]; blood) [% ID/g-tissue]	Biodistribution, Kidney 1' ([1]; kidney) [% ID/g-tissue]	Biodistribution, Kidney 5' ([1]; kidney) [% ID/g-tissue]	Biodistribution, Kidney 60' ([1]; kidney, 60', 60 min) [% ID/g-tissue]	Biodistribution, Liver 1' ([1]; liver) [% ID/g-tissue]	Biodistribution, Liver 5' ([1]; liver) [% ID/g-tissue]	Biodistribution, Liver 60' ([1]; liver, 60', 60 min) [% ID/g-tissue]	tissue uptake at 1 h [1, 3] [%ID/g]	Biodistribution, Sm/Lrg. Intestine 1' ([1]; small/large intestine) [% ID/g-tissue]	Biodistribution, Sm/Lrg. Intestine 5' ([1]; small/large intestine) [% ID/g-tissue]	Biodistribution, Sm/Lrg. Intestine 60' [1, 4] [% ID/g-tissue]	SMILES	also measured
6.21	3.03	12.97	12.72	0.96	13.23	17.56	2.42	0.16	1.81	3.92	17.02	CC(=O)N(C)c1c(I)c(C(=O)O)c(I)c(N(C)C(C)=O)c1I [MDTA-Na]	Water solubility ([2]; listed as sodium salt): ~ 0.35 M
6.63	3.66	13.53	12.65	0.81	12.30	16.23	2.13		2.03	3.80	16.48	CC(=O)N(C)c1c(I)c(C(=O)O)c(I)c(N(C)C(C)=O)c1I [MDTA-NMG]	Biodistribution, Blood 60' ([1]; blood, 60', 60 min): 0.12 % ID/g-tissue; Water solubility ([2]; listed as N-methyl-glucamine (NMG) salt): ~ 1.3 M
								0.04				CC(=O)N(C)c1c(I)c(C(=O)NCCCCCCCCCCCC(=O)O)c(I)c(N(C)C(C)=O)c1I [Example F12-DP-MDTA]	tissue uptake at 1 min ([1]; blood, blood, read-out: Biodistribution, Blood 1'): 2.38 %ID/g; tissue uptake at 5 min ([1]; blood, blood, read-out: Biodistribution, Blood 5'): 0.39 %ID/g; tissue uptake at 1 min ([1]; kidney, kidney, read-out: Biodistribution, Kidney 1'): 9.89 %ID/g; tissue uptake at 5 min ([1]; kidney, kidney, read-out: Biodistribution, Kidney 5'): 5.72 %ID/g; tissue uptake at 1 h ([1]; kidney, kidney, 60', read-out: Biodistribution, Kidney 60'): 0.07 %ID/g; tissue uptake at 1 min ([1]; liver, liver, read-out: Biodistribution, Liver 1'): 28.9 %ID/g; tissue uptake at 5 min ([1]; liver, liver, read-out: Biodistribution, Liver 5'): 16.6 %ID/g; tissue uptake at 1 h ([1]; liver, liver, 60', read-out: Biodistribution, Liver 60'): 2.17 %ID/g; tissue uptake at 1 min ([1]; small/large intestine, small/large intestine, read-out: Biodistribution, Sm/Lrg. Intestine 1'): 2.28 %ID/g; tissue uptake at 5 min ([1]; small/large intestine, small/large intestine, read-out: Biodistribution, Sm/Lrg. Intestine 5'): 11.6 %ID/g; tissue uptake at 1 h ([1]; small/large intestine, small/large intestine, 60', read-out: Biodistribution, Sm/Lrg. Intestine 60'): 28 %ID/g
